Measured values reported in patent publication US10167282B2, “1-(5-tert-butyl-2-aryl-pyrazol-3-yl)-3-[2-fluoro-4-[(3-oxo-4H-pyrido [2, 3-B]pyrazin- 8-yl)oxy]phenyl]urea derivatives as RAF inhibitors for the treatment of cancer” (CANCER RESEARCH TECHNOLOGY LIMITED, priority 2013, dated 2019).
Read-outs that look alike come from different tables or passages of the source.

Key:
[1] = tested on: hERG; type: cell-based, human; conditions: read-out: hERG Inhibition IC50
Procedure: Studies were conducted at Cyprotex Discovery in Cheshire, UK according to the contractor's protocol. The studies were performed on an IonWorks™ HT instrument (Molecular Devices Corporation), which automatically performs electrophysiology measurements in […] single cells simultaneously in a specialised 384-well plate (PatchPlate™). The cells used were Chinese hamster ovary (CHO) cells stably transfected with hERG (cell-line obtained from Cytomyx, UK). A single-cell suspension was prepared in extracellular solution (Dulbecco's phosphate buffered saline with calcium and magnesium pH 7-7.2) and aliquots added automatically to each well of a PatchPlate™. The cells were then positioned over a small hole at the bottom of each well by applying a vacuum beneath the plate to form an electrical seal. The vacuum was applied through a single compartment common to all wells which was filled with intracellular solution (buffered to pH 7.2 with HEPES). The resistance of each seal was measured via a common ground-electrode in the intracellular compartment and individual electrodes placed into each of the upper wells.
Electrical access to the cell was then achieved by circulating a perforating agent, amphotericin, underneath the PatchPlate™ and then measuring the pre-compound hERG current. An electrode was positioned in the extracellular compartment and a holding potential of −80 mV applied for 15 seconds. The hERG channels were then activated by applying a depolarising step to +40 mV for 5 seconds and then clamped at −50 mV for 4 seconds to elicit the hERG tail current, before returning to −80 mV for 0.3 seconds. […]. Quinidine, an established hERG inhibitor, was included as an experimental control. […]. The test compound was left in contact with the cells for 300 seconds before recording currents using the same voltage-step protocol as in the pre-compound scan. Each concentration was tested in 4 replicate wells.
Post-compound currents were expressed as a percentage of pre-compound currents and plotted against concentration for each compound. Where concentration-dependent inhibition was observed, the data were fitted to the following equation: y=(ymax−ymin)/(1+(x/x50)^s)+ymin.
y=(post-compound current/pre-compound current)×100;
x50=concentration required to inhibit current by 50% (IC50); and […]

[2] = target: V600EBRAF; assay: DELFIA kinase assay (BRAF V600E Kinase Assay); type: biochemical, human; conditions: for IC50: 100 μM ATP
Procedure: Compounds were assessed in a kinase assay performed according to the following protocol.
^V600EBRAF was generated by infection of SF9 insect cells cultured in SF-900 II medium (Invitrogen, Paisley, Scotland) with a baculovirus containing full-length human BRAF with an N-terminal histidine tag and purified by nickel-agarose affinity chromatography.
Full-length rabbit MEK1 protein was expressed with a GST tag at the N-terminus and a C-terminal histidine tag in Escherichia coli JM109 bacteria and purified by nickel-agarose affinity chromatography.
Combine 4950 μL of DKB and 50 μL of 2.5 mg/mL GST-MEK stock obtained as described above (to give […] of MEK per 40 μL). Then add 22.5 μL of BRAF stock obtained as described above to give ˜0.2 μL of BRAF per 40 μL.
100 mM ATP stock in distilled water, dilute to 500 μM to give 100 μM final concentration in assay.
3. Plate out 40 μL of DKB1 for all inhibitors (test compounds), DMSO control, and optionally other control compounds.
5. Add inhibitors (test compounds) at 0.5 μL per well according to desired plate layout.
8. Pre-incubate with test compounds for 10 minutes at room temperature with shaking.
9. Add 10 μL of 500 μM ATP stock, in DKB, to give 100 μM assay concentration.
10. Seal plates with TopSeal and incubate at room temperature with shaking for 45 minutes.
12. Add 50 μL per well of antibody mix and incubate for 1 hour at room temperature with shaking.
14. Add 100 μL DELFIA enhancement solution per well, cover in foil, and incubate at room temperature for 30 minutes with shaking.
15. Read on Victor plate reader (Perkin-Elmer, Turku, Finland) using Europium protocol.
Values for the blank (Empty Vector) are subtracted from all values. The DMSO controls are set as 100% activity and assay points (the response) are calculated as a percentage of the DMSO control. Data are plotted using Graphpad Prism software and a non-linear regression line is calculated using a variable slope sigmoidal dose-response equation: Y=Bottom+[Top−Bottom]/[1+10^((Log EC50−X)*HillSlope)] where X is the logarithm of concentration and Y is the response. The IC50 generated by this procedure is the concentration of the drug that produces a percentage control fluorescence value midway between the saturation, and zero-effect plateaus. Three independent assays are usually performed and the mean IC50 is reported.

[3] = tested on: mutant BRAF WM266.4 cells; assay: Cell based phospho-ERK assay; conditions: Homo sapiens, WM 266-4, 6 h, read-out: Cell-Based Phospho-ERK Assay IC50
Procedure: Cell Based Phospho-ERK Assay (Mutant BRAF WM266.4 Cells)
Compounds were assessed using a cell-based assay which was performed according to the following protocol.
Plate out 16,000 mutant BRAF WM266.4 cells/well in 99 μL medium in a 96-well plate.
Add 1 μL test compound to the cells (total 1 μL solution).
Incubate the cells with test compound for 6 hours at 37° C.
Read Europium Time Resolved Fluorescence in Victor2 plate reader (Perkin-Elmer, Turku, Finland).
Note that Europium counts are normalised for protein levels by dividing counts by absorbance.
Values for the blank (no cells) are subtracted from all values. The DMSO controls are set as 100% activity and assay points (the response) are calculated as a percentage of the DMSO control. Data are plotted using Graphpad Prism software and a non-linear regression line is calculated using a variable slope sigmoidal dose-response equation: Y=Bottom+[Top−Bottom]/[1+10^((Log EC50−X)*HillSlope)] where X is the logarithm of concentration and Y is the response). The IC50 generated by this procedure is the concentration of the drug that produces a percentage control fluorescence value midway between the saturation, and zero-effect plateaus. Three independent assays are usually performed and the mean IC50 is reported.

[4] = tested on: mice with collagen-induced arthritis; conditions: cited from earlier work
[5] = target: FGFR1; assay: Z'-LYTE biochemical kinase assay; conditions: ATP 100 μM
Procedure: (§1) Activity Against Other Targets
(§2) Studies were conducted at Life Technologies in Paisley according to the contractor's protocol. TBAP-01 was dissolved in DMSO and assayed at final concentrations ranging from 10 μM to 0.5 nM in 1% DMSO, in the presence of an ATP concentration of 100 μM. IC50 values for test compounds were determined using the Z'-LYTE® biochemical assay employing a fluorescence-based, coupled-enzyme format based on the differential sensitivity of phosphorylated and non-phosphorylated peptides to proteolytic cleavage.

[6] = target: CRAF; assay: Z'-LYTE biochemical kinase assay; conditions: ATP 100 μM
Procedure: as §1, §2

[7] = target: PDGFRα; assay: Z'-LYTE biochemical kinase assay; conditions: ATP 100 μM
Procedure: as §1, §2

[8] = target: MET; assay: Z'-LYTE biochemical kinase assay; conditions: ATP 100 μM
Procedure: as §1, §2

[9] = target: Lck; assay: Z'-LYTE biochemical kinase assay; conditions: ATP 100 μM
Procedure: as §1, §2

[10] = target: KDR; assay: Z'-LYTE biochemical kinase assay; conditions: ATP 100 μM
Procedure: as §1, §2

[11] = target: p38γ; assay: Z'-LYTE biochemical kinase assay; conditions: ATP 100 μM
Procedure: as §1, §2

[12] = target: p38α; assay: Z'-LYTE biochemical kinase assay; conditions: ATP 100 μM
Procedure: as §1, §2

[13] = target: EGFR; assay: Z'-LYTE biochemical kinase assay; conditions: ATP 100 μM
Procedure: as §1, §2

[14] = target: PDGFRβ; assay: Z'-LYTE biochemical kinase assay; conditions: ATP 100 μM
Procedure: as §1, §2

[15] = target: Src; assay: Z'-LYTE biochemical kinase assay; conditions: ATP 100 μM
Procedure: as §1, §2

[16] = tested on: TESK1; assay: Kinase profiling, radioactive (33P-ATP) filter-binding assay; type: biochemical; conditions: at 1 μM
Procedure: as §1
(§3) Additional studies were conducted at The International Centre for Kinase Profiling in Dundee according to the contractor's protocol. TBAP-01 was dissolved in DMSO and assayed at a final concentration of 1 μM in 2% DMSO against 131 kinases. The assays were carried out using a radioactive (^33P-ATP) filter-binding assay.

[17] = tested on: TAK1; assay: as above; type: biochemical; conditions: at 1 μM
Procedure: as §1, §3

[18] = tested on: MINK1; assay: as above; type: biochemical; conditions: at 1 μM
Procedure: as §1, §3

[19] = tested on: Tie-2; assay: as above; type: biochemical; conditions: at 1 μM
Procedure: as §1, §3

[20] = tested on: TrkA; assay: as above; type: biochemical; conditions: at 1 μM
Procedure: as §1, §3

[21] = tested on: IGF1Rβ; assay: as above; type: biochemical; conditions: not stated whether inhibition or remaining activity
Procedure: as §1, §3

[22] = tested on: DDR2; assay: as above; type: biochemical; conditions: at 1 μM
Procedure: as §1, §3

[23] = tested on: ABL; assay: as above; type: biochemical; conditions: at 1 μM
Procedure: as §1, §3

[24] = tested on: YES1; assay: as above; type: biochemical; conditions: at 1 μM
Procedure: as §1, §3

[25] = CHO cells stably transfected with hERG, tail current

What does the source list for Cc1ccc(-n2nc(C(C)(C)C)cc2NC(=O)Nc2ccc(Oc3ccnc4[nH]c(=O)cnc34)cc2F)cn1 [AA-084, reference compound]?
IC50 [1, 25]: 53 µM; IC50 [2]: 0.71 µM

For Cn1c(=O)[nH]c2nccc(Oc3ccc(NC(=O)Nc4cc(C(C)(C)C)nn4-c4cccc(F)c4)c(F)c3)c21 [AA-04, reference compound], which IC50 [2] is on record?
Its IC50 is 0.65 µM.

For COc1ccc(-n2nc(C(C)(C)C)cc2NC(=O)Nc2ccc(Oc3ccnc4[nH]c(=O)cnc34)cc2F)cn1 [AA-062, reference compound], which IC50 [1, 25] is on record?
Its IC50 is over 100 µM.

What about the IC50 [2] of the same compound?
Its IC50 is 0.079 µM.

What does the source list for Cc1cccc(-n2nc(C(C)(C)C)cc2NC(=O)Nc2ccc(Oc3ccnc4[nH]c(=O)cnc34)cc2F)c1 [TBAP-02]?
IC50 [1]: 65 µM; IC50 [2]: 0.099 µM

For CC(C)(C)c1cc(NC(=O)Nc2ccc(Oc3ccnc4[nH]c(=O)cnc34)cc2F)n(-c2ccccc2)n1 [AA-019, reference compound], which IC50 [1, 25] is on record?
The IC50 was over 100 µM.

And the IC50 [2]?
The IC50 was 0.055 µM.

For CC(C)(C)c1cc(NC(=O)Nc2ccc(Oc3ccnc4[nH]c(=O)cnc34)cc2F)n(-c2cccc(C(F)(F)F)c2)n1 [TBAP-03], which IC50 [1, 25] is on record?
Its IC50 is over 100 µM.

What about the IC50 [2] of the same compound?
Its IC50 is 0.13 µM.

For COc1cccc(-n2nc(C(C)(C)C)cc2NC(=O)Nc2ccc(Oc3ccnc4[nH]c(=O)cnc34)cc2F)c1 [TBAP-04, 1-(3-tert-butyl-1-(3-methoxyphenyl)-1H-pyrazol-5-yl)-3-(2-fluoro-4-(3-oxo-3,4-dihydropyrido[3,2-b]pyrazin-8-yloxy)phenyl)urea], which IC50 [1, 25] is on record?
Its IC50 is over 100 µM.

And the IC50 [2]?
The IC50 was 0.047 µM.

Which results are given for Cc1ccc(-n2nc(C(C)(C)C)cc2NC(=O)Nc2ccc(Oc3ccnc4[nH]c(=O)cnc34)cc2F)cc1 [AA-018, reference compound]?
IC50 [1, 25]: > 100 µM; IC50 [2]: 0.064 µM

With CC(C)(C)c1cc(NC(=O)Nc2ccc(Oc3ccnc4[nH]c(=O)cnc34)cc2F)n(-c2ccnc(O)c2)n1 [TBAP-05, 1-(3-tert-butyl-1-(2-oxo-1,2-dihydropyridin-4-yl)-1H-pyrazol-5-yl)-3-(2-fluoro-4-(3-oxo-3,4-dihydropyrido[3,2-b]pyrazin-8-yloxy)phenyl)urea] as the compound, how does the IC50 [2] read?
Its IC50 is 0.39 µM.

What about the IC50 [3] of the same compound?
Its IC50 is 0.45 µM.

For Clc1ccc(Nc2nnc(Cc3ccncc3)c3ccccc23)cc1 [PTK787/ZK222584], which “inhibition of knee swelling” value [4] is on record?
The value was 40%.

What about the “inhibition of severity scores” value [4] of the same compound?
The value was 51%.

For CC(C)(C)c1cc(NC(=O)Nc2ccc(Oc3ccnc4[nH]c(=O)cnc34)cc2F)n(-c2cccc(F)c2)n1 [TBAP-01], which IC50 [1, 25] is on record?
Its IC50 is over 100 µM.

What about the “fold more potent than Compound AA-04 on the BRAF kinase assay” value [2] of the same compound?
The value was 10 fold.

And the IC50 [2]?
The IC50 was 0.062 µM.

What about the “fold more potent than Compound AA-084 on the BRAF kinase assay” value ([2]; vs AA-084) of the same compound?
Its value is 11 fold.

And the IC50 [5]?
Its IC50 is 0.47 µM.

And the IC50 [6]?
Its IC50 is 0.033 µM.

And the IC50 [7]?
Its IC50 is 0.8 µM.

And the IC50 [8]?
Its IC50 is 1.4 µM.

And the IC50 [9]?
Its IC50 is 0.019 µM.

What about the IC50 [10] of the same compound?
The IC50 was 0.12 µM.

What about the IC50 [11] of the same compound?
Its IC50 is 0.22 µM.

What about the IC50 [12] of the same compound?
Its IC50 is 0.47 µM.

And the IC50 [13]?
The IC50 was 1.9 µM.

And the IC50 [14]?
The IC50 was 0.74 µM.

And the IC50 [15]?
The IC50 was 0.027 µM.

What about the TESK1 activity remaining [16] of the same compound?
The TESK1 activity remaining was 5% activity remaining at 1 μM.

What about the TAK1 activity remaining [17] of the same compound?
The TAK1 activity remaining was 6% activity remaining at 1 μM.

What about the MINK1 activity remaining [18] of the same compound?
Its MINK1 activity remaining is 4% activity remaining at 1 μM.

What about the Tie-2 activity remaining [19] of the same compound?
The Tie-2 activity remaining was 3% activity remaining at 1 μM.

What about the TrkA activity remaining [20] of the same compound?
The TrkA activity remaining was 6% activity remaining at 1 μM.

What about the “IGF1Rβ % @ 1 μM” value [21] of the same compound?
The value was 78% @ 1.

And the DDR2 activity remaining [22]?
Its DDR2 activity remaining is 3% activity remaining at 1 μM.

And the ABL activity remaining [23]?
The ABL activity remaining was 4% activity remaining at 1 μM.

What about the YES1 activity remaining [24] of the same compound?
Its YES1 activity remaining is 6% activity remaining at 1 μM.
